# In patent publication US12187721B2, “Protein tyrosine phosphatase inhibitors” (Array BioPharma Inc., priority 2018, dated 2025):
# Where two headings read alike, the source gives them in different places.
# Molecular target: T1, full-length SHP2 (His6-tagged SHP2(2-527)) (Homo sapiens, UniProt Q06124)
# T1 construct: His6-tagged SHP2(2-527); His6; made in house; host or cells: E. coli
# Assay: SHP2 Enzymatic Assay (fluorescence intensity kinetic assay, DiFMUP hydrolysis)
# Format: biochemical
# Outline: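 1 nM His6-SHP2(2-527), activated by 1 μM bis-phosphopeptide, hydrolysed 50 μM DiFMUP in 25 mM HEPES pH 7.4 with 1 mM DTT, 50 mM KCl and 2% DMSO. DiFMU fluorescence (Ex 355/Em 460 nm) was read kinetically for 15 min at ambient temperature.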
# T1 sequence (Q06124 2-527): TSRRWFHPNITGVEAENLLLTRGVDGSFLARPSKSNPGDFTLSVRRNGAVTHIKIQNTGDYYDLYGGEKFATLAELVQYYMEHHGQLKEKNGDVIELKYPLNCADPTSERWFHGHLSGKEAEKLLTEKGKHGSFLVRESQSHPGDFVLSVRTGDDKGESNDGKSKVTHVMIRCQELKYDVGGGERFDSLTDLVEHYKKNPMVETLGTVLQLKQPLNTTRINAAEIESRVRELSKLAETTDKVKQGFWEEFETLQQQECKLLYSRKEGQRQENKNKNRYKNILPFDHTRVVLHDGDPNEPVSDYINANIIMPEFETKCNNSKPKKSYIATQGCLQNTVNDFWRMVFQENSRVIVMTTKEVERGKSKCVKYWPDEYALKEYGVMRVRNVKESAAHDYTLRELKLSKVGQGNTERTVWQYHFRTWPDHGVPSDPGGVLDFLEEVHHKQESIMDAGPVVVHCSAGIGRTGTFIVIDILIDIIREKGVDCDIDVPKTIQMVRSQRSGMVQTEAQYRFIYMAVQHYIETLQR
Compound,IC50 [nM],"IC50 (full-length SHP2 with 1 μM activating peptide, 50 μM DiFMUP, single assay or mean of multiple assays, read-out: Biological Example 1 IC50) [nM]"
"CC1(N)CCN(c2cnc3nc(-c4ccnc(NCCO)c4Cl)ccc3n2)CC1 [Example 47, 2-((4-(2-(4-amino-4-methylpiperidin-1-yl)pyrido[2,3-b]pyrazin-6-yl)-3-chloropyridin-2-yl)amino)ethan-1-ol]",6000,–
"Nc1nccc(Sc2ccc3nc(N4CCC5(CC4)Cc4ncccc4[C@@H]5N)cnc3n2)c1Cl [Example 167, (R)-1′-(6-((2-amino-3-chloropyridin-4-yl)thio)pyrido[2,3-b]pyrazin-2-yl)-5,7-dihydrospiro[cyclopenta[b]pyridine-6,4′-piperidin]-5-amine]",50,–
"C[C@@H]1OCC2(CCN(c3cnc4nc(Sc5cc(N)nc6[nH]ccc56)ccc4n3)CC2)[C@@H]1N [Example 140, (3S,4S)-8-(6-((6-amino-1H-pyrrolo[2,3-b]pyridin-4-yl)thio)pyrido[2,3-b]pyrazin-2-yl)-3-methyl-2-oxa-8-azaspiro[4.5]decan-4-amine]",75,–
"C[C@@H]1OCC2(CCN(c3cnc4nc(Sc5ccnc(N6CCOCC6)c5Cl)ccc4n3)CC2)[C@@H]1N [Example 79, (3S,4S)-8-(6-((3-chloro-2-morpholinopyridin-4-yl)thio)pyrido[2,3-b]pyrazin-2-yl)-3-methyl-2-oxa-8-azaspiro[4,5]decan-4-amine]",425,–
"C[C@@H]1OCC2(CCN(c3cnc4nc(Sc5ccnc6c5ccn6C)ccc4n3)CC2)[C@@H]1N [Example 191, (3S,4S)-3-methyl-8-(6-((1-methyl-1H-pyrrolo[2,3-b]pyridin-4-yl)thio)pyrido[2,3-b]pyrazin-2-yl)-2-oxa-8-azaspiro[4.5]decan-4-amine]",134,–
"Nc1nccc(Sc2ccc3nc(N4CCC(N)(CCO)CC4)cnc3n2)c1Cl [Example 128, 2-(4-amino-1-(6-((2-amino-3-chloropyridin-4-yl)thio)pyrido[2,3-b]pyrazin-2-yl)piperidin-4-yl)ethan-1-ol]",100,–
"C[C@@H]1OCC2(CCN(c3cnc4nc(N5CCNc6ccccc65)ccc4n3)CC2)[C@@H]1N [Example 70, (3S,4S)-8-(6-(3,4-dihydroquinoxalin-1(2H)-yl)pyrido[2,3-b]pyrazin-2-yl)-3-methyl-2-oxa-8-azaspiro[4.5]decan-4-amine]",5970,–
"C[C@@H]1OCC2(CCN(c3cnc4nc(-c5ccccc5)ccc4n3)CC2)[C@@H]1N [Example 66, (3S,4S)-3-methyl-8-(6-phenylpyrido[2,3-b]pyrazin-2-yl)-2-oxa-8-azaspiro[4.5]decan-4-amine]",2750,–
"C[C@@H]1OCC2(CCN(c3cnc4nc(Sc5ccnc(N)c5F)ccc4n3)CC2)[C@@H]1N [Example 175, (3S,4S)-8-(6-((2-amino-3-fluoropyridin-4-yl)thio)pyrido[2,3-b]pyrazin-2-yl)-3-methyl-2-oxa-8-azaspiro[4.5]decan-4-amine]",1230,–
"N[C@H]1C[C@@H]2CN(c3cnc4nc(Sc5cccc(Cl)c5Cl)ccc4n3)C[C@H]1O2 [Example 59, (1R,5R,6S)-3-(6-((2,3-dichlorophenyl)thio)pyrido[2,3-b]pyrazin-2-yl)-8-oxa-3-azabicyclo[3.2.1]octan-6-amine]",405,–
"C[C@@H]1OCC2(CCN(c3cnc4nc(Sc5cccnc5C(F)(F)F)ccc4n3)CC2)[C@@H]1N [Example 221, (3S,4S)-3-methyl-8-(6-((2-(trifluoromethyl)pyridin-3-yl)thio)pyrido[2,3-b]pyrazin-2-yl)-2-oxa-8-azaspiro[4.5]decan-4-amine]",183,–
"COc1ccc(F)c(-c2ccc3nc(N4CCC(C)(N)CC4)cnc3n2)c1Cl [Example 26, 1-(6-(2-chloro-6-fluoro-3-methoxyphenyl)pyrido[2,3-b]pyrazin-2-yl)-4-methylpiperidin-4-amine]",920,–
"Nc1nccc(Sc2ccc3nc(N4C[C@H]5C[C@H](N)[C@@H](C4)O5)cnc3n2)c1Cl [Example 58, (1R,5R,6S)-3-(6-((2-amino-3-chloropyridin-4-yl)thio)pyrido[2,3-b]pyrazin-2-yl)-8-oxa-3-azabicyclo[3.2.1]octan-6-amine]",153,–
"NC1(CO)CCN(c2cnc3nc(Sc4cccc(Cl)c4Cl)ccc3n2)CC1 [Example 9, (4-amino-1-(6-((2,3-dichlorophenyl)thio)pyrido[2,3-b]pyrazin-2-yl)piperidin-4-yl)methanol]",62,–
"Nc1nccc(Sc2ccc3nc(N4C[C@@H]5CC[C@H]4CN5)cnc3n2)c1Cl [Example 208, 4-((2-((1S,4S)-2,5-diazabicyclo[2.2.2]octan-2-yl)pyrido[2,3-b]pyrazin-6-yl)thio)-3-chloropyridin-2-amine]",67,–
"C[C@@H]1OCC2(CCN(c3cnc4nc(Sc5ccnc(NC6CC6)c5Cl)ccc4n3)CC2)[C@@H]1N [Example 184, (3S,4S)-8-(6-((3-chloro-2-(cyclopropylamino)pyridin-4-yl)thio)pyrido[2,3-b]pyrazin-2-yl)-3-methyl-2-oxa-8-azaspiro[4.5]decan-4-amine]",413,–
"Cc1nccc(Sc2ccc3nc(N4CCCC(C)(N)CC4)cnc3n2)c1Cl (stereo not drawn) [Example 147, 1-(6-((3-chloro-2-methylpyridin-4-yl)thio)pyrido[2,3-b]pyrazin-2-yl)-4-methylazepan-4-amine]",50,–

Compound,IC50 [nM],"IC50 (full-length SHP2 with 1 μM activating peptide, 50 μM DiFMUP, single assay or mean of multiple assays, read-out: Biological Example 1 IC50) [nM]"
"Cc1nc(Cl)ccc1Sc1ccc2nc(N3CCC(C)(N)CC3)cnc2n1 [Example 96, 1-(6-((6-chloro-2-methylpyridin-3-yl)thio)pyrido[2,3-b]pyrazin-2-yl)-4-methylpiperidin-4-amine]",503,–
"Cn1ncc2cccc(Sc3ccc4nc(N5CCC(C)(N)CC5)cnc4n3)c21 [Example 34, 4-methyl-1-(6-((1-methyl-1H-indazol-7-yl)thio)pyrido[2,3-b]pyrazin-2-yl)piperidin-4-amine]",2600,–
"CC1(N)CCN(c2cnc3nc(-c4cccc(F)c4Cl)ccc3n2)CC1 [Example 152, 1-(6-(2-chloro-3-fluorophenyl)pyrido[2,3-b]pyrazin-2-yl)-4-methylpiperidin-4-amine]",30,–
"Nc1nccc(Sc2ccc3nc(N4CCC(N)(CO)CC4)cnc3n2)c1Cl [Example 43, (4-amino-1-(6-((2-amino-3-chloropyridin-4-yl)thio)pyrido[2,3-b]pyrazin-2-yl)piperidin-4-yl)methanol]",100,–
"CC1(N)CCN(c2cnc3nc(-c4cccc5ccccc45)ccc3n2)CC1 [Example 38, 4-methyl-1-(6-(naphthalen-1-yl)pyrido[2,3-b]pyrazin-2-yl)piperidin-4-amine]",–,290
"Nc1nccc(Sc2ccc3nc(N4CC5CCC(C4)N5)cnc3n2)c1Cl [Example 201, 4-((2-(3,8-diazabicyclo[3.2.1]octan-3-yl)pyrido[2,3-b]pyrazin-6-yl)thio)-3-chloropyridin-2-amine]",130,–
"Nc1nccc(Sc2ccc3nc(N4CCC5(CC4)c4ccccc4[C@H]5N)cnc3n2)c1Cl [Example 165, (S)-1′-(6-((2-amino-3-chloropyridin-4-yl)thio)pyrido[2,3-b]pyrazin-2-yl)spiro[bicyclo[4.2.0]octane-7,4′-piperidine]-1(6),2,4-trien-8-amine]",16000,–
"C[C@@H]1OCC2(CCN(c3cnc4nc(Sc5ccnc6[nH]ncc56)ccc4n3)CC2)[C@@H]1N [Example 214, (3S,4S)-8-(6-((1H-pyrazolo[3,4-b]pyridin-4-yl)thio)pyrido[2,3-b]pyrazin-2-yl)-3-methyl-2-oxa-8-azaspiro[4.5]decan-4-amine]",304,–
"Nc1nccc(Sc2ccc3nc(N4CCC(N)(C(F)(F)F)CC4)cnc3n2)c1Cl [Example 104, 4-((2-(4-amino-4-(trifluoromethyl)piperidin-1-yl)pyrido[2,3-b]pyrazin-6-yl)thio)-3-chloropyridin-2-amine]",3350,–
"C[C@@H]1OCC2(CCN(c3cnc4nc(Sc5ccnc(CO)c5Cl)ccc4n3)CC2)[C@@H]1N [Example 90, (4-((2-((3S,4S)-4-amino-3-methyl-2-oxa-8-azaspiro[4.5]decan-8-yl)pyrido[2,3-b]pyrazin-6-yl)thio)-3-chloropyridin-2-yl)methanol]",183,–
"NCC1(F)CCN(c2cnc3nc(Sc4cccc(Cl)c4Cl)ccc3n2)CC1 [Example 212, (1-(6-((2,3-dichlorophenyl)thio)pyrido[2,3-b]pyrazin-2-yl)-4-fluoropiperidin-4-yl)methanamine]",197,–
"COc1nccc(Sc2ccc3nc(N4CCC(N)(CO)CC4)cnc3n2)c1Cl [Example 44, (4-amino-1-(6-((3-chloro-2-methoxypyridin-4-yl)thio)pyrido[2,3-b]pyrazin-2-yl)piperidin-4-yl)methanol]",120,–
"N[C@@H]1CCCC12CCN(c1cnc3nc(Sc4cccc(Cl)c4Cl)ccc3n1)CC2 [Example 8, (R)-8-(6-((2,3-dichlorophenyl)thio)pyrido[2,3-b]pyrazin-2-yl)-8-azaspiro[4.5]decan-1-amine]",59,–
"C[C@@H]1OCC2(CCN(c3cnc4nc(Sc5ccc(N)nc5C(F)(F)F)ccc4n3)CC2)[C@@H]1N [Example 176, (3S,4S)-8-(6-((6-amino-2-(trifluoromethyl)pyridin-3-yl)thio)pyrido[2,3-b]pyrazin-2-yl)-3-methyl-2-oxa-8-azaspiro[4.5]decan-4-amine]",109,–
"N[C@@H]1c2ccccc2CC12CCN(c1cnc3nc(Sc4cnc5ccc(Cl)cn45)ccc3n1)CC2 [Example 127, (S)-1′-(6-((6-chloroimidazo[1,2-a]pyridin-3-yl)thio)pyrido[2,3-b]pyrazin-2-yl)-1,3-dihydrospiro[indene-2,4′-piperidin]-1-amine]",82,–
"CC(C)(N)C1CCN(c2cnc3nc(Sc4ccnc(N)c4Cl)ccc3n2)CC1 [Example 60, 4-((2-(4-(2-aminopropan-2-yl)piperidin-1-yl)pyrido[2,3-b]pyrazin-6-yl)thio)-3-chloropyridin-2-amine]",245,–
